Values of other authors as cited in US10590413B2, “Chiral control” (WAVE LIFE SCIENCES LTD., priority 2012, dated 2020).
Read-outs that look alike come from different tables or passages of the source.

Legend:
[1] = test system: Murine IL-6 production and B cell activation; details: cited from earlier work; for IL-6 (pg/ml) CH12.LX: CH12.LX cells; for SI (stimulation index, [3H] uridine uptake, fold increase from unstimulated control): cells stimulated with 20 μM CpG O-ODN; for SI (stimulation index, [3H] uridine uptake, fold increase from unstimulated control) / SI (stimulation index, [3H] uridine uptake): mean ± SD of triplicates; for SI (stimulation index, [3H] uridine uptake): fold increase from unstimulated control, 20 μM CpG O-ODN; for IgM: measured by ELISA, unstimulated culture 547 ± 82 ng/ml; for IL-6 (pg/ml) SPLENIC B CELL: splenic B cells
[2] = test system: human PBMC; details: cited from earlier work
[3] = unstimulated control ≤10 pg/ml, US 6,239,116 Table 2
[4] = ODN 12 μg/ml, 4 hr, 10% autologous serum, level above wells with no ODN, ELISA
[5] = ODN 12 μg/ml, 24 hr, 10% autologous serum, level above wells with no ODN, ELISA

1637 (DNA TCCATGCCGGTCCTGATGCT; chemistry not given here) [Oligonucleotide 1637]
IL-6 (pg/ml) CH12.LX [1]: 136 ± 27 pg/mL | IL-6 (pg/ml) CH12.LX [1, 3]: 136 ± 27 pg/mL | SI (stimulation index, [3H] uridine uptake, fold increase from unstimulated control) [1]: 1.7 ± 0.2 | SI (stimulation index, [3H] uridine uptake) [1]: 1.7 ± 0.2 | IgM [1]: 770 ± 72 ng/mL | IL-6 (pg/ml) SPLENIC B CELL [1]: 46 ± 6 pg/mL | IL-6 (pg/ml) SPLENIC B CELL [1, 3]: 46 ± 6 pg/mL | TNF-α [2, 4]: 16 pg/mL | GM-CSF [2, 5]: 15.6 pg/mL | IFN-γ [2, 5]: 7.8 pg/mL | IL-6 [2, 5]: 550 pg/mL | IL-12 [2, 5]: 16 pg/mL | GM-CSF [2]: 15.6 | IFN-γ [2]: 7.8 | IL-6 [2]: 550 | IL-12 [2]: 35 | TNF-α [2]: 16

1708 (DNA TCCATCACGTGCCTGATGCT; chemistry not given here) [Oligonucleotide 1708]
SI (stimulation index, [3H] uridine uptake, fold increase from unstimulated control) [1]: 1.5 ± 0.1 | SI (stimulation index, [3H] uridine uptake) [1]: 1.5 ± 0.1 | IgM [1]: 466 ± 109 ng/mL | IL-6 (pg/ml) SPLENIC B CELL [1]: 59 ± 3 pg/mL | IL-6 (pg/ml) SPLENIC B CELL [1, 3]: 59 ± 3 pg/mL | TNF-α [2, 4]: 10 pg/mL | IFN-γ [2, 5]: 17 pg/mL | IL-6 [2, 5]: 270 pg/mL | IL-12 [2, 5]: 10 pg/mL | GM-CSF [2]: 0 | IFN-γ [2]: 17 | IL-6 [2]: 270 | IL-12 [2]: 0 | TNF-α [2]: 10

1614 (DNA TCCATGACGGTCCTGATGCT; chemistry not given here) [Oligonucleotide 1614]
IL-6 (pg/ml) CH12.LX [1]: 1533 ± 321 pg/mL | IL-6 (pg/ml) CH12.LX [1, 3]: 1533 ± 321 pg/mL | SI (stimulation index, [3H] uridine uptake, fold increase from unstimulated control) [1]: 10.8 ± 0.6 | SI (stimulation index, [3H] uridine uptake) [1]: 10.8 ± 0.6 | IgM [1]: 7558 ± 414 ng/mL | IL-6 (pg/ml) SPLENIC B CELL [1]: 1812 ± 103 pg/mL | IL-6 (pg/ml) SPLENIC B CELL [1, 3]: 1812 ± 103 pg/mL | TNF-α [2, 4]: 31 pg/mL | GM-CSF [2, 5]: 50 pg/mL | IFN-γ [2, 5]: 0 pg/mL | IL-6 [2, 5]: 550 pg/mL | IL-12 [2, 5]: 31 pg/mL

1636 (DNA TCCATGTCGATCCTGATGCT; chemistry not given here) [Oligonucleotide 1636]
IL-6 (pg/ml) CH12.LX [1]: 1181 ± 76 pg/mL | IL-6 (pg/ml) CH12.LX [1, 3]: 1181 ± 76 pg/mL | SI (stimulation index, [3H] uridine uptake, fold increase from unstimulated control) [1]: 5.4 ± 0.4 | SI (stimulation index, [3H] uridine uptake) [1]: 5.4 ± 0.4 | IgM [1]: 3983 ± 485 ng/mL | IL-6 (pg/ml) SPLENIC B CELL [1]: 947 ± 132 pg/mL | IL-6 (pg/ml) SPLENIC B CELL [1, 3]: 947 ± 132 pg/mL | TNF-α [2, 4]: 250 pg/mL | GM-CSF [2, 5]: 40 pg/mL | IFN-γ [2, 5]: 35 pg/mL | IL-6 [2, 5]: 325 pg/mL | IL-12 [2, 5]: 250 pg/mL | GM-CSF [2]: 40 | IFN-γ [2]: 35 | IL-6 [2]: 325 | IL-12 [2]: 0 | TNF-α [2]: 250

1707 (DNA TCCATGACGTCCCTGATGCT; chemistry not given here) [Oligonucleotide 1707]
SI (stimulation index, [3H] uridine uptake, fold increase from unstimulated control) [1]: 4.0 ± 0.2 | SI (stimulation index, [3H] uridine uptake) [1]: 4.0 ± 0.2 | IgM [1]: 3534 ± 217 ng/mL | IL-6 (pg/ml) SPLENIC B CELL [1]: 1147 ± 175 pg/mL | IL-6 (pg/ml) SPLENIC B CELL [1, 3]: 1147 ± 175 pg/mL | TNF-α [2, 4]: 70 pg/mL | GM-CSF [2, 5]: 0 pg/mL | IFN-γ [2, 5]: 17 pg/mL | IL-6 [2, 5]: 300 pg/mL | IL-12 [2, 5]: 70 pg/mL | GM-CSF [2]: 0 | IFN-γ [2]: 17 | IL-6 [2]: 300 | IL-12 [2]: 0 | TNF-α [2]: 70
